Here are results for six compounds from patent publication US6683092B1, “[3-(C5-14ALKYL-2-OXO-1,2,3,4-TETRAHYDRO-QUINOLIN-6-YL)-3-OXO-PROPENYL]-PHENYL AND [3-(C5-14ALKYL-2-OXO-1,2,3,4- TETRAHYDRO-QUINOLIN-6-YL)-3-OXO-PROPENYL]-HETEROARYL DERIVATIVES HAVING ANTI-TUMOR ACTIVITY” (Allergan, Inc., priority 2003, dated 2004).

In assay [1] the test system is prostate cancer cell line LNCaP. The experiment in a line: Colony (clonogenic) assay, serum-free, LNCaP. The class given is cell-based. To be noted: 14 days, concentration giving 50% inhibition of cell growth; for EC50: Homo sapiens, LNCaP, 336 h. As to the method: (§1) Specifically, the following assay procedure was employed to test certain exemplary compounds of the invention in the breast cancer cell line known in the art as MCF-7 and in the prostrate cancer cell line known in the art as LNCaP.
(§2) Set 4 mL cultures in 60 mm petri dishes
(medium for LNCaP—[…] with ITS & linoleic acid)
(§3) Seeding density: LNCaP serum-free 1200 cells/dish; MCF-7 serum-free 1400 cells/dish
(§4) Add compound immediately after setting cultures and then change the media and re-feed with compound at day 2 (or day 3 for assays set on Fridays).
(§5) Incubated for 14 days (serum free lines)
(§6) 2. fix with 10% formal saline for ˜30 mins
(§7) 3. remove formal saline and wash with 2-3 mLs PBS
(§8) 4. stain with 1% methylene blue in PBS, leave this on for ˜1 hr
(§9) 5. remove stain and wash off in tap water
(§10) 6. dry overnight and count the colonies
(§11) The results obtained in these assays are shown in Table 1, expressed in EC50 numbers, where EC50 is the concentration (expressed as nanomolar) of the compound that results in 50% inhibition of the growth of the cells.

The subject of assay [2] is breast cancer cell line MCF-7. The experiment in a line: Colony (clonogenic) assay, serum-free, MCF-7. The format is cell-based. To be noted: 14 days, concentration giving 50% inhibition of cell growth. As to the method: as §1, §2
(medium for MCF-7—DMEN with L-glutamine & without glucose)
as §3, §4, §5, §6, §7, §8, §9, §10, §11

“Also recorded” adds a separate entry of the source.

In the case of “4-[3-(1-Phenylethyl-4,4-dimethyl-2-oxo-1,2,3,4-tetrahydro-quinolin-6-yl)-3-oxo-propenyl]-benzoic acid [Compound 8e]”, in assay [1], the “EC50 for Prostate Cancer Cell Line (LNCaP)” value is on record as “Not Active”. The compound also displayed a concentration giving a half-maximal response (EC50) in assay [2] of 9 nM.

With `CCCCCCN1C(=O)CC(C)(C)c2cc(C(=O)C=Cc3ccc(C(=O)O)cc3)ccc21` [Compound 8a, 4-[3-(1-Hexyl-4,4-dimethyl-2-oxo-1,2,3,4-tetrahydro-quinolin-6-yl)-3-oxo-propenyl]-benzoic acid], the EC50 in assay [1] came to 90 nM; in assay [2] (Homo sapiens, MCF7, 336 h), 9 nM.

As for `CCCCCCCN1C(=O)CC(C)(C)c2cc(C(=O)C=Cc3ccc(C(=O)O)cc3)ccc21` [Compound 8b, 4-[3-(1-Heptyl-4,4-dimethyl-2-oxo-1,2,3,4-tetrahydro-quinolin-6-yl)-3-oxo-propenyl]-benzoic acid], the half-maximal effective concentration (EC50) turned out to be 155 nM in assay [1] and 9 nM in assay [2] (Homo sapiens, MCF7, 336 h).

With `CCCCCCCCN1C(=O)CC(C)(C)c2cc(C(=O)C=Cc3ccc(C(=O)O)cc3)ccc21` [Compound 8c, 4-[3-(1-Octyl-4,4-dimethyl-2-oxo-1,2,3,4-tetrahydro-quinolin-6-yl)-3-oxo-propenyl]-benzoic acid], the EC50 is 52 nM in assay [1] and 30 nM in assay [2] (Homo sapiens, MCF7, 336 h).

As to `CCCCCCCCCN1C(=O)CC(C)(C)c2cc(C(=O)C=Cc3ccc(C(=O)O)cc3)ccc21` [Compound 8d, 4-[3-(1-Nonyl-4,4-dimethyl-2-oxo-1,2,3,4-tetrahydro-quinolin-6-yl)-3-oxo-propenyl]-benzoic acid], the EC50 in assay [1] was found to be 155 nM; in assay [2] (Homo sapiens, MCF7, 336 h), 3 nM.

Regarding `CN1C(=O)CC(C)(C)c2cc(C(=O)C=Cc3ccc(C(=O)O)cc3)ccc21` [Compound 8f, 4-[3-(1-Methyl-4,4-dimethyl-2-oxo-1,2,3,4-tetrahydro-quinolin-6-yl)-3-oxo-propenyl]-benzoic acid], the “EC50 for Prostate Cancer Cell Line (LNCaP)” value in assay [1] is “inactive; also recorded: Not Active”. Further, the “EC50 for Breast Cancer Cell Line (MCF-7)” value in assay [2] was “inactive; also recorded: Not Active”.
